Laboratory results from patent publication US10597388B2, “Pyridazinone herbicides” (FMC CORPORATION, priority 2014, dated 2020).

How the values were obtained:
Test in all cases: Test D controlled growth environment herbicide test, pre- and postemergence
Type in all cases: in vivo
[1] = test system: buckwheat, wild (wild buckwheat, Polygonum convolvulus)
Excerpt: (§1) Seeds of plant species selected from bluegrass (annual bluegrass, Poa annua), blackgrass (Alopecurus myosuroides), Canada thistle (Cirsium arvense), canarygrass (Phalaris minor), chickweed (common chickweed, Stellaria media), geranium, cutleaf (cutleaf geranium, Geranium dissectum), galium (catchweed bedstraw, Galium aparine), bromegrass, downy (downy bromegrass, Bromus tectorum), field poppy (Papaver rhoeas), field violet (Viola arvensis), foxtail, green (green foxtail, Setaria viridis), deadnettle (henbit deadnettle, Lamium amplexicaule), ryegrass, Italian (Italian ryegrass, Lolium multiflorum), kochia (Kochia scoparia), lambsquarters (Chenopodium album), oilseed rape (Brassica napus), pigweed (Amaranthus retroflexus), chamomile (scentless chamomile, Matricaria inodora), Russian thistle (Salsola kali), speedwell (bird's-eye speedwell, Veronica persica), barley, spring (spring barley, Hordeum vulgare), wheat, spring (spring wheat, Triticum aestivum), buckwheat, wild (wild buckwheat, Polygonum convolvulus), mustard, wild (wild mustard, Sinapis arvensis), oat, wild (wild oat, Avena fatua), radish, wild (wild radish, Raphanus raphanistrum), windgrass (Apera spica-venti), barley, winter (winter barley, Hordeum vulgare), and wheat, winter (winter wheat, Triticum aestivum) were planted into a silt loam soil and treated preemergence with test chemicals formulated in a non-phytotoxic solvent mixture which included a surfactant.
(§2) At the same time, these species were planted in pots containing Redi-Earth® planting medium (Scotts Company, 14111 Scottslawn Road, Marysville, Ohio 43041) comprising spaghnum peat moss, vermiculite, wetting agent and starter nutrients and treated with postemergence applications of the test chemicals formulated in the same manner. Plants ranged in height from 2 to 18 cm (1- to 4-leaf stage). Treated plants and controls were maintained in a controlled growth environment for 14 to 21 d after which time all species were compared to controls and visually evaluated. Plant response ratings, summarized in Table D, are based on a scale of 0 to 100 where 0 is no effect and 100 is complete control. A dash (-) response means no test result.

[2] = test system: barley, winter (winter barley, Hordeum vulgare)
Excerpt: as §1, §2

[3] = test system: canarygrass (Phalaris minor)
Excerpt: as §1, §2

[4] = test system: barley, spring (spring barley, Hordeum vulgare)
Excerpt: as §1, §2

[5] = test system: oilseed rape (Brassica napus)
Excerpt: as §1, §2

[6] = test system: bluegrass (annual bluegrass, Poa annua)
Excerpt: as §1, §2

[7] = test system: pigweed (Amaranthus retroflexus)
Excerpt: as §1, §2

[8] = test system: foxtail, green (green foxtail, Setaria viridis)
Excerpt: as §1, §2

[9] = test system: wheat, spring (spring wheat, Triticum aestivum)
Excerpt: as §1, §2

[10] = test system: mustard, wild (wild mustard, Sinapis arvensis)
Excerpt: as §1, §2

[11] = test system: oat, wild (wild oat, Avena fatua)
Excerpt: as §1, §2

[12] = test system: galium (catchweed bedstraw, Galium aparine)
Excerpt: as §1, §2

[13] = test system: field poppy (Papaver rhoeas)
Excerpt: as §1, §2

[14] = Postemergence, 31 g ai/ha, scale 0 to 100 (0 no effect, 100 complete control)
[15] = Postemergence, 125 g ai/ha, visual rating on scale 0 (no effect) to 100 (complete control), 14 to 21 d
[16] = Postemergence, 250 g ai/ha, scale 0 to 100 (0 no effect, 100 complete control)
[17] = Preemergence, 62 g ai/ha, scale 0 to 100 (0 no effect, 100 complete control)
[18] = Preemergence, 125 g ai/ha, scale 0 to 100 (0 no effect, 100 complete control)
[19] = Preemergence, 250 g ai/ha, scale 0 to 100, 0 no effect, 100 complete control
[20] = postemergence, 62 g ai/ha, scale 0 to 100, 0 no effect, 100 complete control

## Cc1nn(C)c(=O)c(-c2cccc3ccccc23)c1O [Compound 11, 5-hydroxy-2,6-dimethyl-4-(1-naphthalenyl)-3(2H)-pyridazinone]
[1]; [14]
  Buckwheat, Wild plant response rating: 45
[1]; [15]
  Plant response rating, Buckwheat, Wild: 60
[1]; [16]
  Plant response rating, Buckwheat, Wild: 95
[1]; Preemergence, 31 g ai/ha
  Plant response rating (scale of 0 to 100), Buckwheat, Wild: 20
[1]; [17]
  Plant response rating, Buckwheat, Wild: 15
[1]; [18]
  Plant response rating, Buckwheat, Wild: 15
[1]; [19]
  Plant response rating, Buckwheat, Wild: 25
[1]; [20]
  Plant response rating, Buckwheat, Wild: 45
[2]; [14]
  Plant response rating, Barley, Winter: 20
[2]; [15]
  Plant response rating, Barley, Winter: 25
[2]; [16]
  Plant response rating, Barley, Winter: 40
[2]; Preemergence, 31 g ai/ha
  Plant response rating (scale of 0 to 100), Barley, Winter: 5
[2]; [17]
  Plant response rating, Barley, Winter: 5
[2]; [18]
  Plant response rating, Barley, Winter: 5
[2]; [19]
  Barley, Winter plant response rating: 20
[2]; [20]
  Plant response rating, Barley, Winter: 20
[3]; [14]
  Canarygrass plant response rating: 10
[3]; [15]
  Plant response rating, Canarygrass: 30
[3]; [16]
  Plant response rating, Canarygrass: 55
[3]; Preemergence, 31 g ai/ha
  Plant response rating (scale of 0 to 100), Canarygrass: 45
[3]; [17]
  Plant response rating, Canarygrass: 55
[3]; [18]
  Plant response rating, Canarygrass: 90
[3]; [19]
  Plant response rating, Canarygrass: 90
[3]; [20]
  Plant response rating, Canarygrass: 20
[4]; [14]
  Plant response rating, Barley, Spring: 0
[4]; [15]
  Plant response rating, Barley, Spring: 10
[4]; [16]
  Plant response rating, Barley, Spring: 10
[4]; Preemergence, 31 g ai/ha
  Plant response rating (scale of 0 to 100), Barley, Spring: 5
[4]; [17]
  Plant response rating, Barley, Spring: 5
[4]; [18]
  Plant response rating, Barley, Spring: 10
[4]; [19]
  Barley, Spring plant response rating: 15
[4]; [20]
  Plant response rating, Barley, Spring: 0
[5]; [14]
  Oilseed Rape plant response rating: 0
[5]; [15]
  Plant response rating, Oilseed Rape: 20
[5]; [16]
  Plant response rating, Oilseed Rape: 55
[5]; Preemergence, 31 g ai/ha
  Plant response rating (scale of 0 to 100), Oilseed Rape: 5
[5]; [17]
  Plant response rating, Oilseed Rape: 0
[5]; [18]
  Plant response rating, Oilseed Rape: 5
[5]; [19]
  Plant response rating, Oilseed Rape: 5
[5]; [20]
  Plant response rating, Oilseed Rape: 15
[6]; [14]
  Bluegrass plant response rating: 5
[6]; [15]
  Plant response rating, Bluegrass: 5
[6]; [16]
  Plant response rating, Bluegrass: 15
[6]; Preemergence, 31 g ai/ha
  Plant response rating (scale of 0 to 100), Bluegrass: 10
[6]; [17]
  Plant response rating, Bluegrass: 15
[6]; [18]
  Plant response rating, Bluegrass: 30
[6]; [19]
  Bluegrass plant response rating: 55
[6]; [20]
  Plant response rating, Bluegrass: 5
[7]; [14]
  Pigweed plant response rating: 35
[7]; [15]
  Plant response rating, Pigweed: 95
[7]; [16]
  Plant response rating, Pigweed: 100
[7]; Preemergence, 31 g ai/ha
  Plant response rating (scale of 0 to 100), Pigweed: 0
[7]; [17]
  Plant response rating, Pigweed: 0
[7]; [18]
  Plant response rating, Pigweed: 98
[7]; [19]
  Plant response rating, Pigweed: 100
[7]; [20]
  Plant response rating, Pigweed: 65
[8]; [14]
  Foxtail, Green plant response rating: 5
[8]; [15]
  Plant response rating, Foxtail, Green: 65
[8]; [16]
  Plant response rating, Foxtail, Green: 70
[8]; Preemergence, 31 g ai/ha
  Plant response rating (scale of 0 to 100), Foxtail, Green: 10
[8]; [17]
  Plant response rating, Foxtail, Green: 10
[8]; [18]
  Plant response rating, Foxtail, Green: 15
[8]; [19]
  Plant response rating, Foxtail, Green: 65
[8]; [20]
  Plant response rating, Foxtail, Green: 25
[9]; [14]
  Wheat, Spring plant response rating: 15
[9]; [15]
  Plant response rating, Wheat, Spring: 25
[9]; [16]
  Plant response rating, Wheat, Spring: 25
[9]; Preemergence, 31 g ai/ha
  Plant response rating (scale of 0 to 100), Wheat, Spring: 5
[9]; [17]
  Plant response rating, Wheat, Spring: 15
[9]; [18]
  Plant response rating, Wheat, Spring: 25
[9]; [19]
  Plant response rating, Wheat, Spring: 35
[9]; [20]
  Plant response rating, Wheat, Spring: 15
[10]; [14]
  Mustard, Wild plant response rating: 65
[10]; [15]
  Plant response rating, Mustard, Wild: 75
[10]; [16]
  Plant response rating, Mustard, Wild: 95
[10]; Preemergence, 31 g ai/ha
  Plant response rating (scale of 0 to 100), Mustard, Wild: 0
[10]; [17]
  Plant response rating, Mustard, Wild: 20
[10]; [18]
  Plant response rating, Mustard, Wild: 75
[10]; [19]
  Plant response rating, Mustard, Wild: 100
[10]; [20]
  Plant response rating, Mustard, Wild: 70
[11]; [14]
  Oat, Wild plant response rating: 40
[11]; [15]
  Plant response rating, Oat, Wild: 85
[11]; [16]
  Plant response rating, Oat, Wild: 98
[11]; Preemergence, 31 g ai/ha
  Plant response rating (scale of 0 to 100), Oat, Wild: 15
[11]; [17]
  Plant response rating, Oat, Wild: 70
[11]; [18]
  Plant response rating, Oat, Wild: 80
[11]; [19]
  Plant response rating, Oat, Wild: 85
[11]; [20]
  Plant response rating, Oat, Wild: 75
[12]; [14]
  Galium plant response rating: 85
[12]; [15]
  Plant response rating, Galium: 90
[12]; [16]
  Plant response rating, Galium: 90
[12]; Preemergence, 31 g ai/ha
  Plant response rating (scale of 0 to 100), Galium: 70
[12]; [17]
  Plant response rating, Galium: 80
[12]; [18]
  Plant response rating, Galium: 100
[12]; [19]
  Plant response rating, Galium: 100
[12]; [20]
  Plant response rating, Galium: 85
[13]; [14]
  Field Poppy plant response rating: 35
[13]; [15]
  Plant response rating, Field Poppy: 80
[13]; [16]
  Plant response rating, Field Poppy: 100
[13]; Preemergence, 31 g ai/ha
  Plant response rating (scale of 0 to 100), Field Poppy: 75
[13]; [17]
  Plant response rating, Field Poppy: 75
[13]; [18]
  Plant response rating, Field Poppy: 100
[13]; [19]
  Plant response rating, Field Poppy: 100
[13]; [20]
  Plant response rating, Field Poppy: 85
